Measurements taken from patent publication US10376486B2, “Compositions and methods for reactivating latent viral infections” (priority 2014, dated 2019).

Experiments:
[1] = system: latent HIV in primary CD4+ T cells; assay: Ex vivo HIV transcription in primary CD4+ T cells from HIV infected individuals on suppressive ART (RT-qPCR); type: cell-based
Description: Primary CD4+ T cells were isolated from peripheral blood of HIV infected individuals on suppressive ART and treated with 6 or 12 nM PEP005, 200 ng/ml PMA plus 2 μM lonomycin, or DMSO for 6 hours. Induction of HIV transcription was measured using RT-qPCR for the 5′ LTR region or Poly A region of the virus. **, p<0.01.
Primary CD4+ T cells were isolated from the peripheral blood of HIV positive individuals on suppressive ART and treated with 12 nM PEP005 alone or in combination with JQ1 for 6 hours, and HIV transcription was quantified using RT-qPCR for the 5′ LTR region or Poly A region of the virus.
Primary CD4+ T cells were isolated from the peripheral blood of HIV positive individuals on suppressive ART and treated with 12 nM PEP005 alone or in combination with JQ1 for 48 hours, and HIV transcription was quantified using RT-qPCR for the 5′ LTR region or Poly A region of the virus.
Primary CD4+ T cells were isolated from the peripheral blood of HIV positive individuals on suppressive ART and treated with 12 nM PEP005 alone or in combination with JQ1 for 6 or 48 hours, and HIV transcription was quantified using RT-qPCR for the 5′ LTR region or Poly A region of the virus.
Peripheral blood samples were collected from 13 HIV-infected individuals receiving suppressive ART for >3 years except for one patient. All subjects had suppression of plasma viremia for more than 6 months (Average 5.84 years). At the time of the study enrollment, CD4+ T cell counts in peripheral blood samples ranged from 264 to 1100 cells/mm^3 (Average 639 cell/mm^3) and plasma viral loads were <20 copies per ml as measured by qPCR (Table 1). Isolation of the peripheral blood mononuclear cells (PBMC) and purification of CD4+ T cells using the EasySep kit ([sequence] Technologies Inc. Vancouver, BC, Canada) were performed as previously described [24]. The purified CD4+ T cells were plated at a density of 1×10^6 cells/ml and treated with 200 ng/ml PMA plus 2 μM Ionomycin, 6-12 nM PEP005, 2 μM of JQ1, or 12 nM PEP005 plus 2 μM JQ1 for 6 hrs or 48 hrs and the cells were collected for RNA purification.

[2] = system: J-Lat A1 cells, U1 cells, primary CD4+ T cells; assay: Cell proliferation / S-phase progression by BrdU ELISA; type: cell-based; conditions: U1 cells or primary CD4+ T cells, 12 nM PEP005, 24 hours
Description: FIG. 7: PEP005 causes minimal cytotoxicity and T cell proliferation. To evaluate the impact of PEP005 on the cell viability, U1 cells (A), J-Lat A1 cells (B) and CD4+ T cells (C) were treated with 12 nM of PEP005 for 24 hours, the cell viability was examined with the MTT assay and the S-phase cell cycle progression was evaluated after BrdU incorporation using BrdU ELISA. 25-50 μM Etoposide or 100-150 μM Doxorubicin (Doxo) served as positive controls for MTT and BrdU assays respectively. Statistical analysis was performed in comparison with controls. **, p<0.01.
Cells were placed in 96-well plates and incubated for 24 or 72 h hrs with compounds. Cell viability was measured using MTT assay (Roche Laboratories), and cell proliferation/S-phase progression was determined by using BrdU ELISA kit (Cell signaling, #1863).

Compound: C/C=C(/C)C(=O)O[C@H]1C(C)=C[C@]23C(=O)[C@@H](C=C(CO)[C@@H](O)[C@]12O)[C@H]1[C@@H](C[C@H]3C)C1(C)C [PEP005, (1aR,2S,5R,5aS,6S,8aS,9R,10aR)-5,5a-Dihydroxy-4-(hydroxymethyl)-1,1,7,9-tetramethyl-11-oxo-1a,2,5,5a,6,9,10,10a-octahydro-1H-2,8a-methanocyclopenta[a]cyclpropa[e][10]annulen-6-yl (2Z)-2-methylbut-2-enoate]
- individuals with increase in HIV transcription, 5′ LTR region ([1]; 6 nM PEP005, 6 hrs): 2 out of 7
- donors with 2 or >2 fold increase in full-length HIV transcripts, poly A region ([1]; 12 nM PEP005): 5 of the 6
- HIV RNA copy number in 1 μg of total RNA from CD4+ T cells ([1]; 12 nM PEP005, 6 hr, vs control treatment): significantly induced latent HIV reactivation
- individuals with HIV transcription, 5′ LTR region ([1]; 12 nM PEP005, 6 hrs): 5 out of 7
- donors with 2 fold or >2 fold increase in full-length HIV transcripts, poly A region ([1]; After 6 hours of PEP005 treatment): 5 of the 7
- proportion of cells in S-phase (BrdU) [2]: did not induce any significant increase
